Patent US20130189203A1, “COSMETIC ADDITIVES CONTAINING ALKALI PHOSPHATES” (BK Giulini GmbH, priority 2012, published 2013)

Test: complex formation with iron ions in sun protection formulation, colour measurement (Minolta Chroma-Meter CR 300)
Conditions: formulation + 0.01% iron (III) chloride hexahydrate + 0.09% additive, after 6 weeks
Description: As a base formulation, the formulation of a sun protection agent with butyl methoxy dibenzoylmethane was used. This UVA filter forms an intensive red complex with traces of irons The complexing effect was studied using the following formulation:
The aqueous phase of the formulation was prepared by dissolving Phase B in Phase A until a homogeneous phase resulted. This was brought to a temperature of ca. 75-80° C. Phase C was prepared by dissolving Cosmedia Gel CC in the rest of Phase C until a homogeneous phase resulted. This was heated to ca. 75-80° C., followed by addition of phase D, and then Phase E was stirred in. The mixture of phases C, D, and E was added to the aqueous phase, and this mixture was stirred 5 min at 750 rpm. Then the formulation was cooled to room temperature while stirring at 200 rpm, during which at ca. 60° C. the mixture was homogenised 1 min at 11000 rpm with the aid of an Ultra Turrax stirrer.
The following additives were added to the described formulation:
The respective amount of iron (III) chloride hexahydrate, Carephos N (linear alkali polyphosphate), disodium EDTA, Utanit AF (acid diphosphate, for comparison), and [sic] Phoskadent Pyro (alkali diphosphate, for comparison) was worked into the aqueous phase and was removed from the water content [sic].
The evaluation was carried out by colour measurement. Using a Minolta Chroma-Meter CR 300, the colour status of the formulas was determined after 6 weeks. The measurements yielded values which allowed an objective comparison of the individual formulations. The measurements determined 3 values: L, a, and b. The L value describes lightness and darkness, with 0 representing perfect black and 100 perfect white. The a value describes the red-green value, and the b value describes the yellow-blue value. There are different prefix signs on the a and b values, in accordance with the present CIE Lab system, according to which no colour can be simultaneously reddish and greenish or simultaneously yellowish and bluish. Thus, −a represents green, +a represents red, −b represents blue, and +b represents yellow. […]

- L value (difference to white standard): −26.44
- a value (red-green; difference to white standard): +5.18
- b value (yellow-blue; difference to white standard): +4.10
Compound: O=C([O-])CN(CCN(CC(=O)[O-])CC(=O)O)CC(=O)O.[Na+].[Na+] [Disodium EDTA]
